Bridge positions count the residues as written; N and C are the ends. Peptide text beside a SMILES is read from it.
Tests used:
mouse GIRK1/4 = biological target: T1, mouse GIRK1/4 (Mus musculus, UniProt P48545+P63250); assay: Whole-cell patch-clamp of GIRK1/4 in transfected 293T cells; format: cell-based; settings: 293T cells transiently expressing mouse GIRK1/4, high K+ Tyrode solution (Fig 7); read-out: IC50, GIRK1/4 conductance
T1 construct: expressed in transfected cells; host or cells: 293T cells, transient calcium phosphate transfection, pCMV6 plasmid
T1 sequence (P63250 1-501): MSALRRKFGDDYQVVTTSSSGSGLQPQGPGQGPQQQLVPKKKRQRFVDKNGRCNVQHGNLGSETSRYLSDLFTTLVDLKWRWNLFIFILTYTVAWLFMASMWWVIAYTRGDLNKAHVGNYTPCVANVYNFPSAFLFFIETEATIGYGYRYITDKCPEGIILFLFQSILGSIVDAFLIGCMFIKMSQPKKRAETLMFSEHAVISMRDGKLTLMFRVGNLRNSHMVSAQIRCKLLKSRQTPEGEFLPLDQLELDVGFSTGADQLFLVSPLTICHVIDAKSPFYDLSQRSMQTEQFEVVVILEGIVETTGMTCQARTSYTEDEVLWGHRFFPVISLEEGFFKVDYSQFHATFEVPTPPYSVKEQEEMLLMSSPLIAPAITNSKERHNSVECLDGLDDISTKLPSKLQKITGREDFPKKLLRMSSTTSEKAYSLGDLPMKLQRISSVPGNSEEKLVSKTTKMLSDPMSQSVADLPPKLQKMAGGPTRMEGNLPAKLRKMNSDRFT
T1 sequence (P48545 1-419): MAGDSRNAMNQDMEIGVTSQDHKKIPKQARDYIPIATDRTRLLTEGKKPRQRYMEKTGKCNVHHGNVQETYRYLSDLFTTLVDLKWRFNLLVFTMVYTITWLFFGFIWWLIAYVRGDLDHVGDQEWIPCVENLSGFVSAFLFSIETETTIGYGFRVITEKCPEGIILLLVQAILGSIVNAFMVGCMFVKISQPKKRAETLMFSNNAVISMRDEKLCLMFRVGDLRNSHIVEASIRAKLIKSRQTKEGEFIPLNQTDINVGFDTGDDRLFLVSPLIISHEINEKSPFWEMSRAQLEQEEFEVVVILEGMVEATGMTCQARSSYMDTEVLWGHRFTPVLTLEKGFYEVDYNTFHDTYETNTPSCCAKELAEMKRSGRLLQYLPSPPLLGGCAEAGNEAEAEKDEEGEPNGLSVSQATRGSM
From the text: The cDNAs for rat ROMK and mouse GIRK1, 2, and 4 were generously donated by Drs Mikio Hayashi (Kansai Medical University) and David Weaver (Vanderbilt University). The ROMK channels were stably expressed by a cell line, 208–4, which was transduced with lentiviral vectors coexpressing the channel and green fluorescent protein (GFP) as described previously. The GIRK genes, cloned in a pCMV6 plasmid (Origene Technologies Inc, Rockville, MD), were transiently expressed in 293T cells with calcium phosphate transfection. GIRK channel currents were recorded 24 h after transfection.
Cells grown on small cover glasses (3 × 18 mm) were placed in a recording chamber. Whole-cell currents were recorded in Tyrode solution using an Axopatch 200B amplifier (Axon Instruments, Foster City, CA) at 25°C. Tyrode solution contained (in mM): NaCl 140, KCl 5.4, NaH2PO4 0.33, CaCl2 2, MgCl2 1, HEPES 5, and glucose 5.5 (pH 7.4 adjusted with NaOH). […] Whole-cell currents were recorded 60 sec after the peptide application and those from 100 to 300 msec of the step pulses were averaged. […] Whole-cell conductance was calculated as the slope of the current-voltage (I-V) relationship from -140 mV to -100 mV and normalized to the initial value (0 μM TPN), in which BaCl2-resistant current was subtracted and indicted as a percentage.

[1] = Chemical stability in mouse serum by HPLC; format: in vitro ADME; settings: 33.0 μM peptide mixed with equal volume of mouse serum, 37°C, 30 min; cation-exchange HPLC (HiTrap-SP), A230 nm
Protocol: For the examination of the chemical stability, the peptide was analyzed with high-performance liquid chromatography (HPLC, JASCO, Tokyo, Japan) using a cation-exchange column (HiTrap-SP, Cytiva). TPN-RQ 33.0 μM, which was mixed with an equal volume of PBS or mouse serum, was analyzed with HPLC immediately after mixing or after incubation at 37°C for 30 min. Peptides were eluted with a gradient of NaCl from 200 to 2,000 mM in 10 mM Tris-HCl (pH 7.4), monitoring A230 nm with a UV detector (JASCO).

Male ICR mice = assay: Open field test (OFT); format: in vivo, mouse; settings: i.c.v., 5 min
Protocol: We performed mouse behavioral experiments in accordance with our previous study. Male ICR mice (n = 199 in total) aged 5 weeks old were purchased from Shimizu Laboratory Supplies (Kyoto, Japan) and maintained in an animal facility for 7–12 days. They had free access to food and water and were kept in a 12-h light/dark cycle (08:00–20:00). Experiments were carried out between 11:00 and 17:00 in a quiet and air-conditioned experimental room, to which mice were habituated for 30–60 min before each experiment. Animal experiments were performed in accordance with the guidelines of the Physiological Society of Japan and were approved by the Committee for Animal Experiments of Kurashiki University of Science and the Arts. Peptides were dissolved in phosphate-buffered saline (PBS). Peptides were injected intracerebroventricularly (i.c.v.) 30 min before behavioral tests (typically 5 μL/mouse), according to a previous study. The mouse was placed into an anesthetizing jar, to which isoflurane (0.2 mL) was added immediately before. After confirming that the mouse was deeply anesthetized we injected the peptide into the right cerebral ventricle over 30 seconds and the injection needle was kept for 1 min after the injection (i.c.v. coordinates: 0 mm caudal to bregma, 1.0 mm lateral to the midline, and 3.5 mm below the skull). The mouse was placed in a cage set on a heating pad (approximately 33°C) for a few minutes until it spontaneously started to move, and then it was put back into its home cage. Each animal was used only once, except for the wheel running test, which was carried out immediately after the elevated plus-maze.
The open-field test (OFT) was performed in accordance with a previous report. The open-field consisted of a square (90 × 90 cm), in which the floor was divided into 16 equal squares. After a mouse was placed in a corner of the open field facing the wall, the number of the entries into the central squares and whole line crossings were counted for 5 min. After the removal of the animal, the apparatus was cleaned and wiped.

Row | Structure (SMILES) | IC50 (mouse GIRK1/4) [nM] | chemical stability in mouse serum (HPLC peak height and retention time) [1] | entries to the central area in OFT (Male ICR mice) | number of total line crossings in OFT (Male ICR mice) | central line crossings in OFT (Male ICR mice; n = 6 and 7)
1 | CC[C@H](C)[C@@H]1NC(=O)[C@H](CCCNC(=N)N)NC(=O)[C@H](CCCNC(=N)N)NC(=O)[C@H](CC(N)=O)NC(=O)[C@@H]2CSSC[C@@H](C(=O)NCC(=O)N[C@@H](CCCCN)C(=O)N[C@@H](CCCCN)C(N)=O)NC(=O)[C@H](CCCCN)NC(=O)[C@H](CCCCN)NC(=O)[C@H](Cc3c[nH]c4ccccc34)NC(=O)[C@H](CSSC[C@H](NC(=O)[C@H](CC(C)C)NC(=O)[C@H](C)N)C(=O)N[C@@H](CC(N)=O)C(=O)N2)NC(=O)[C@H](CCC(N)=O)NC(=O)[C@H](Cc2c[nH]cn2)NC(=O)[C@@H]2CCCN2C(=O)[C@H]([C@@H](C)CC)NC1=O [Peptide 2, TPN-RQ] (H-ALCNCNRRIIPHQCWKKCGKK-NH2; disulfide 3-14, 5-18) | 1250 | No changes in the peak height or retention time |  |  | 
2 | CC[C@H](C)[C@@H]1NC(=O)[C@H](CCCNC(=N)N)NC(=O)[C@H](CC(N)=O)NC(=O)[C@@H]2CSSC[C@@H](C(=O)NCC(=O)N[C@@H](CCCCN)C(=O)N[C@@H](CCCCN)C(N)=O)NC(=O)[C@H](CCCCN)NC(=O)[C@H](CCCCN)NC(=O)[C@H](Cc3c[nH]c4ccccc34)NC(=O)[C@H](CSSC[C@H](NC(=O)[C@H](CC(C)C)NC(=O)[C@H](C)N)C(=O)N[C@@H](CC(N)=O)C(=O)N2)NC(=O)[C@H](CCC(N)=O)NC(=O)[C@H](CC(C)C)NC(=O)[C@@H]2CCCN2C(=O)[C@H]([C@@H](C)CC)NC(=O)[C@H]([C@@H](C)CC)NC1=O [Peptide 3, TPN-LQ] (H-ALCNCNRIIIPLQCWKKCGKK-NH2; disulfide 3-14, 5-18; N-terminus and C-terminus assumed) |  |  | decreased | decreased | decreased

— PMC7665585, “Antidepressive effect of an inward rectifier K^+ channel blocker peptide, tertiapin-RQ” (PLoS ONE, 2020)
